Each structure is given as a SMILES string.

The source of these data is patent publication US10017463B2, “Inhibitors of deubiquitinating proteases” (Brandeis University, priority 2014, dated 2018).

One assay has as its system K48-linked ubiquitin. The experiment in a line: K48-linked ubiquitin immunoblot in BaF3/p210 cells. The class given is cell-based, murine. The note with it: 4 h, various concentrations. The method, then: Panel A is an image of an immunoblot showing BaF3/p210 cells were treated with various concentrations of TU46 for 4 h, and then whole cell lysates were blotted for K48-linked ubiquitin and tubulin. Panel B is an immunoblot showing same lysates as in Panel A were blotted for Bcr-Abl.
The K48-linked ubiquitin levels were also probed in these lysates. […] The increase in K48-linked ubiquitin coincided with the loss of Bcr-Abl (FIG. 8, Panel B). Since USP9x is known to deubiquitinate K48-linked polyubiquitin chains, it is possible that this increase in K48-linked ubiquitin is due to USP9x inhibition. See Park et al., PNAS 110, 9433-9438 (2013).
(In general: A western blot detects proteins with antibodies after separation by electrophoresis.)

The next assay has as its system leukemic cell lines. The experiment in a line: NCI-60 human tumor cell line screen. The format is cell-based. To be noted: 48 h treatment. From the text:
For example, a value of 100 means no growth inhibition and a value of 40 indicates 60% growth inhibition. A value of ‘0’ indicates complete growth inhibition.

Consider `CC(C)(C)OC(=O)NCCc1ccc(N=C=S)cc1` [TU46], for which the K48-linked ubiquitin level entry with K48-linked ubiquitin was “increases K48-linked ubiquitin”.
As to `CC(C)(C)OC(=O)NCc1cccc(N=C=S)c1` [TU50], in the assay on leukemic cell lines, the “lethality in NCI-60 screen” value is “selective lethality against leukemic cell lines”.
